Reference: PubChem BioAssay (NCI)
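Method: 48-hour compound exposure of cells in 96-well plates, five concentrations, linear interpolation of endpoints. Abbreviation: GI50, concentration required for 50% inhibition of growth. TGI is the concentration that stops growth completely.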

Columns and labels:
Test in all cases: growth of human tumour cells (NCI), 48 h
MDA-MB-468 breast = tested on: MDA-MB-468 breast
CCRF-CEM leukemia = tested on: CCRF-CEM leukemia
OVCAR-5 ovarian = tested on: OVCAR-5 ovarian
SR leukemia = tested on: SR leukemia
ACHN renal = tested on: ACHN renal
K-562 leukemia = tested on: K-562 leukemia
HCT-15 colon = tested on: HCT-15 colon
HOP-62 NSCLC = tested on: HOP-62 NSCLC
MDA-MB-435 = tested on: MDA-MB-435
NCI-H23 lung = tested on: NCI-H23 lung
RPMI-8226 leukemia = tested on: RPMI-8226 leukemia
CAKI-1 renal = tested on: CAKI-1 renal
SF-295 CNS = tested on: SF-295 CNS
MOLT-4 leukemia = tested on: MOLT-4 leukemia
HL-60(TB) leukemia = tested on: HL-60(TB) leukemia
NCI-H522 lung = tested on: NCI-H522 lung
SNB-75 CNS = tested on: SNB-75 CNS
OVCAR-8 ovarian = tested on: OVCAR-8 ovarian
SK-MEL-28 melanoma = tested on: SK-MEL-28 melanoma
UACC-257 melanoma = tested on: UACC-257 melanoma
A498 renal = tested on: A498 renal
RXF 393 renal = tested on: RXF 393 renal
SK-OV-3 ovarian = tested on: SK-OV-3 ovarian
SF-539 CNS = tested on: SF-539 CNS
KM12 colon = tested on: KM12 colon
NCI-H226 lung = tested on: NCI-H226 lung
LOX IMVI melanoma = tested on: LOX IMVI melanoma
HCC-2998 colon = tested on: HCC-2998 colon
HOP-92 NSCLC = tested on: HOP-92 NSCLC
M14 melanoma = tested on: M14 melanoma
SN12C renal = tested on: SN12C renal
T-47D breast = tested on: T-47D breast
OVCAR-4 ovarian = tested on: OVCAR-4 ovarian
PC-3 prostate = tested on: PC-3 prostate
U251 CNS = tested on: U251 CNS
HCT-116 colon = tested on: HCT-116 colon
BT-549 breast = tested on: BT-549 breast
COLO 205 colon = tested on: COLO 205 colon
A549 NSCLC = tested on: A549 NSCLC
MALME-3M melanoma = tested on: MALME-3M melanoma
TK-10 renal = tested on: TK-10 renal
UACC-62 melanoma = tested on: UACC-62 melanoma
UO-31 renal = tested on: UO-31 renal
SK-MEL-5 melanoma = tested on: SK-MEL-5 melanoma
MCF7 breast = tested on: MCF7 breast
MDA-MB-231 breast = tested on: MDA-MB-231 breast
NCI-H460 lung = tested on: NCI-H460 lung
HS 578T breast = tested on: HS 578T breast
DU-145 prostate = tested on: DU-145 prostate
EKVX NSCLC = tested on: EKVX NSCLC
HT29 colon = tested on: HT29 colon
SF-268 CNS = tested on: SF-268 CNS
SNB-19 CNS = tested on: SNB-19 CNS
786-0 renal = tested on: 786-0 renal
IGROV1 ovarian = tested on: IGROV1 ovarian
SW-620 colon = tested on: SW-620 colon
OVCAR-3 ovarian = tested on: OVCAR-3 ovarian

## CN1C=CN(Cc2ccc(-c3ccccn3)nc2)[CH-]1.CN1C=CN(Cc2ccc(-c3ccccn3)nc2)[CH-]1.[Au+3]
MDA-MB-468 breast
  GI50: 337 nM
  TGI: 2530 nM

## O=C(N/N=C\c1cc(Cl)ccc1O)N/N=C/c1cc(Cl)ccc1O
MDA-MB-468 breast
  GI50: 2580 nM
  TGI: > 100000 nM

## O=C(Nc1ccc(-c2nc3ccc(NC(=O)c4ccc(Cl)cc4)cc3[nH]2)cc1)c1ccc(Cl)cc1
MDA-MB-468 breast
  GI50: 2580 nM
  TGI: 8450 nM

## CCn1cc(C2NC(=O)c3cc(F)ccc3N2)c2cccc(Cl)c21 (configuration not stated)
MDA-MB-468 breast
  GI50: 292 nM
  TGI: 6130 nM

## CCNC1=CC(=O)c2ncccc2C1=O
MDA-MB-468 breast
  GI50: 2110 nM
  TGI: 7550 nM

## NC(=O)c1ccc(-c2c3ccccc3cc3c2ccc2ccccc23)cc1
MDA-MB-468 breast
  GI50: 1340 nM
  TGI: 6970 nM

## C=C(C)[C@@H]1CC[C@]2(C#N)CC[C@]3(C)[C@H](CC[C@@H]4[C@@]5(C)CCCNC(C)(C)[C@@H]5CC[C@]43C)[C@@H]12
MDA-MB-468 breast
  GI50: 1750 nM
  TGI: 3210 nM

## COc1cc(Nc2ncc(-c3ccccc3)o2)cc(OC)c1OC
MDA-MB-468 breast
  GI50: 74.4 nM
  TGI: 1100 nM

## Cc1ccc(Nc2ccnc(Nc3cccc(C(N)=O)c3)n2)cc1O
MDA-MB-468 breast
  GI50: 2620 nM
  TGI: 9560 nM

## Cc1cc(N=C(N)c2ccccc2)ccc1OCCCCCCCCn1ccnc1
CCRF-CEM leukemia
  GI50: 371 nM
  TGI: 12400 nM
OVCAR-5 ovarian
  GI50: 456 nM
  TGI: 11500 nM
SR leukemia
  GI50: 327 nM
  TGI: 19400 nM
ACHN renal
  GI50: 547 nM
  TGI: 13200 nM
K-562 leukemia
  GI50: 283 nM
  TGI: 11200 nM
HCT-15 colon
  GI50: 361 nM
  TGI: 11500 nM
HOP-62 NSCLC
  GI50: 441 nM
  TGI: 15200 nM
MDA-MB-435
  GI50: 225 nM
  TGI: 573 nM
NCI-H23 lung
  GI50: 262 nM
  TGI: 4060 nM
RPMI-8226 leukemia
  GI50: 352 nM
  TGI: 1630 nM
CAKI-1 renal
  GI50: 580 nM
  TGI: 12000 nM
SF-295 CNS
  GI50: 259 nM
  TGI: 929 nM
MOLT-4 leukemia
  GI50: 565 nM
  TGI: 17700 nM
HL-60(TB) leukemia
  GI50: 211 nM
  TGI: 659 nM
NCI-H522 lung
  GI50: 245 nM
  TGI: 986 nM
SNB-75 CNS
  GI50: 418 nM
  TGI: 7300 nM
OVCAR-8 ovarian
  GI50: 471 nM
  TGI: 2950 nM
SK-MEL-28 melanoma
  GI50: 1010 nM
  TGI: 8680 nM
UACC-257 melanoma
  GI50: 1470 nM
  TGI: 13000 nM
A498 renal
  GI50: 8120 nM
  TGI: 23700 nM
RXF 393 renal
  GI50: 231 nM
  TGI: 1570 nM
SK-OV-3 ovarian
  GI50: 512 nM
  TGI: 14900 nM
SF-539 CNS
  GI50: 227 nM
  TGI: 567 nM
KM12 colon
  GI50: 444 nM
  TGI: 13600 nM
NCI-H226 lung
  GI50: 332 nM
  TGI: 1790 nM
LOX IMVI melanoma
  GI50: 327 nM
  TGI: 1860 nM
MDA-MB-468 breast
  GI50: 155 nM
  TGI: 694 nM
HCC-2998 colon
  GI50: 224 nM
  TGI: 1760 nM
HOP-92 NSCLC
  GI50: 589 nM
  TGI: 7870 nM
M14 melanoma
  GI50: 323 nM
  TGI: 1310 nM
SN12C renal
  GI50: 440 nM
  TGI: 7870 nM
T-47D breast
  GI50: 594 nM
  TGI: 21500 nM
OVCAR-4 ovarian
  GI50: 2890 nM
  TGI: 35300 nM
PC-3 prostate
  GI50: 460 nM
  TGI: 16500 nM
U251 CNS
  GI50: 355 nM
  TGI: 3100 nM
HCT-116 colon
  GI50: 375 nM
  TGI: 11400 nM
BT-549 breast
  GI50: 1450 nM
  TGI: 11100 nM
COLO 205 colon
  GI50: 354 nM
  TGI: 1450 nM
A549 NSCLC
  GI50: 803 nM
  TGI: 14900 nM
MALME-3M melanoma
  GI50: 323 nM
  TGI: 1590 nM
TK-10 renal
  GI50: 1460 nM
  TGI: 17200 nM
UACC-62 melanoma
  GI50: 494 nM
  TGI: 7580 nM
UO-31 renal
  GI50: 680 nM
  TGI: 8270 nM
SK-MEL-5 melanoma
  GI50: 325 nM
  TGI: 1170 nM
MCF7 breast
  GI50: 312 nM
  TGI: 10700 nM
MDA-MB-231 breast
  GI50: 540 nM
  TGI: 4610 nM
NCI-H460 lung
  GI50: 388 nM
  TGI: 11600 nM
HS 578T breast
  GI50: 991 nM
  TGI: 12100 nM
DU-145 prostate
  GI50: 407 nM
  TGI: 14300 nM
EKVX NSCLC
  GI50: 422 nM
  TGI: 13300 nM
HT29 colon
  GI50: 239 nM
  TGI: 667 nM
SF-268 CNS
  GI50: 1220 nM
  TGI: 16600 nM
SNB-19 CNS
  GI50: 753 nM
  TGI: 17700 nM
786-0 renal
  GI50: 483 nM
  TGI: 4580 nM
IGROV1 ovarian
  GI50: 634 nM
  TGI: 12400 nM
SW-620 colon
  GI50: 463 nM
  TGI: 20900 nM
OVCAR-3 ovarian
  GI50: 366 nM
  TGI: 13100 nM

## NC(=NC1C2CC3CC(C2)CC1C3)Nc1ccc(I)cc1 (configuration not stated)
MDA-MB-468 breast
  GI50: 1960 nM
  TGI: 4680 nM

## COc1cc([N+](=O)[O-])c2ncccc2c1O
MDA-MB-468 breast
  GI50: 35600 nM
  TGI: > 100000 nM

## N#CC(C#N)=C/C=C/c1cccc([N+](=O)[O-])c1
MDA-MB-468 breast
  GI50: 767 nM
  TGI: 2280 nM

## O=C(O)c1c(Cl)c(Cl)c(Cl)c(Cl)c1-c1c2cc(I)c(=O)c(I)c-2oc2c(I)c(O)c(I)cc12
MDA-MB-468 breast
  GI50: 36900 nM
  TGI: 76200 nM

## COCCn1cc(-c2csc(-c3c[nH]c4ccc(F)cc34)n2)c2cccnc21
MDA-MB-468 breast
  GI50: 2440 nM
  TGI: 8510 nM

## CCc1ccc(/C=C2/SC(=S)NC2=O)cc1
MDA-MB-468 breast
  GI50: 20300 nM
  TGI: 69400 nM

## Fc1cc(Nc2ccc3c(OCCCN4CCOCC4)cccc3n2)ccc1Cl
MDA-MB-468 breast
  GI50: 2080 nM
  TGI: 4430 nM

## COc1cc(C(=O)c2c(-c3ccccc3)oc3ccccc23)cc(OC)c1O
MDA-MB-468 breast
  GI50: 362 nM
  TGI: 3480 nM

## Brc1ccc2[nH]cc(-c3nc(-c4c[nH]c5ccncc45)cs3)c2c1
MDA-MB-468 breast
  GI50: 1770 nM
  TGI: 3450 nM

## O=C(/C=C/c1cccs1)Nc1ncc(Cc2ccccc2F)s1
MDA-MB-468 breast
  GI50: 364 nM
  TGI: > 100000 nM

## COc1cc(SC)ccc1C(=O)N1CCCC(C)C1 (configuration not stated)
MDA-MB-468 breast
  GI50: 26100 nM
  TGI: > 100000 nM

## O=c1c2c(=NCCCN3CCCC3)cc3c(=O)n(CCCN4CCCC4)c(=O)c4c(NCCCN5CCCC5)cc(c(O)n1CCCN1CCCC1)c2c4-3
MDA-MB-468 breast
  GI50: 1740 nM
  TGI: 4680 nM

## COc1ccccc1OCC(O)CO (configuration not stated)
MDA-MB-468 breast
  GI50: > 100000 nM
  TGI: > 100000 nM

## CCN(CC)c1ccc(/C=N\NC(=O)c2cccc(Nc3ccnc(C(F)(F)F)c3)c2)c(O)c1
MDA-MB-468 breast
  GI50: 239 nM
  TGI: 3510 nM

## Cc1cc(C#Cc2ccccc2)ccc1-n1c(/C=C/c2ccc(O)cc2)nc2ccccc2c1=O
MDA-MB-468 breast
  GI50: 3780 nM
  TGI: > 100000 nM

## Cn1cc(/C=C2\C(=O)Nc3cccnc32)c2ccccc21
MDA-MB-468 breast
  GI50: 12000 nM
  TGI: > 25000 nM

## CCOc1ccc(N2C(N)=NC(N)=NC2(C)C)cc1
MDA-MB-468 breast
  GI50: 20800 nM
  TGI: > 100000 nM

## CC(C)=CCC[C@](C)(O)[C@H]1CC[C@]2(C)[C@@H]1CC[C@@H]1[C@@]3(C)CC[C@H](OC(=O)CCC(=O)O)C(C)(C)[C@@H]3CC[C@]12C
MDA-MB-468 breast
  GI50: 22300 nM
  TGI: 96100 nM

## O=C(O)CCN1C(=O)/C(=C/C(Cl)=C/c2ccccc2)SC1=S
MDA-MB-468 breast
  GI50: 1200 nM
  TGI: 2980 nM

## Fc1ccc(-c2c(-c3ccncc3)n(CCN3CCOCC3)c3cccnc23)cc1
MDA-MB-468 breast
  GI50: > 25000 nM
  TGI: > 25000 nM
